These molecules were tested against PIK3CG (human) (UniProt P48736) (assay: Assessment of PIK3CG Kinase Activity).
Sequence of PIK3CG (human) (P48736 whole entry, looked up): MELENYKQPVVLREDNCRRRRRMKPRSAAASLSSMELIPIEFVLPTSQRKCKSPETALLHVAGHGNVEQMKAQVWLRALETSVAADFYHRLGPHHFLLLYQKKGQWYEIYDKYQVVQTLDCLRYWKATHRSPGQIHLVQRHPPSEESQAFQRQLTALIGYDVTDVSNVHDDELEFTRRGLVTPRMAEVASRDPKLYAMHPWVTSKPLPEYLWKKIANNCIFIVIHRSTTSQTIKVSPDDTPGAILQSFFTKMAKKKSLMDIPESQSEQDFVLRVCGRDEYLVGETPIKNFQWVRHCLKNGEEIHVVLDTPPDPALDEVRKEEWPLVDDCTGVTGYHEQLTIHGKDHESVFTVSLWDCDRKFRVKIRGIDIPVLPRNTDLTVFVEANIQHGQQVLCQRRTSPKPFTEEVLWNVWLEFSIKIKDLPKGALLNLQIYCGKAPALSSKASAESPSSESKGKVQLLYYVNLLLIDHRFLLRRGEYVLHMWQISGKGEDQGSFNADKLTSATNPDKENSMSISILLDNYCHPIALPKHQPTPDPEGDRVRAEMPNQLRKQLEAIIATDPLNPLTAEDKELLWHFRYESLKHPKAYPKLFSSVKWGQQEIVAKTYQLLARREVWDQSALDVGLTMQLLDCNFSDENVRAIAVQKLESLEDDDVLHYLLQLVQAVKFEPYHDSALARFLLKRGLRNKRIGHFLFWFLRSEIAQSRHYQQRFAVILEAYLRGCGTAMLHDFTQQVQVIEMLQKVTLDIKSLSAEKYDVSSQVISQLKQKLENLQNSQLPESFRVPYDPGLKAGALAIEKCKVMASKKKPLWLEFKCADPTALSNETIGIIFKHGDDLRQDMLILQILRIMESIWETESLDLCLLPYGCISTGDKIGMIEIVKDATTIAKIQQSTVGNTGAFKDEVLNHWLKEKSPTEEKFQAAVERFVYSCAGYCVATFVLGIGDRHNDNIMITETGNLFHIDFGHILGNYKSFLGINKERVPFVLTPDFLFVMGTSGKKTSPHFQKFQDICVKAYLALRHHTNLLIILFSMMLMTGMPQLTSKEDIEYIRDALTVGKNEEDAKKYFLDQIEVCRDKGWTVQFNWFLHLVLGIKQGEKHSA

IC50, < 800 nM:
CC(=O)Nc1nc2c(s1)-c1c(c(C(C)C)nn1-c1ccc(C(=O)NC3CCN(C)CC3)cc1Cl)CC2
CN(C)CCN(C)C(=O)Nc1nc2c(s1)-c1c(cnn1-c1ccccc1)C2
CC(=O)Nc1nc2c(s1)-c1c(c(C(=O)NCCO)nn1-c1ccccc1Cl)CC2
CC(=O)Nc1nc2c(s1)-c1nc(N(C)C)ncc1CC2
Nc1nc2c(s1)-c1nc(-c3ccccc3)ncc1CC2
CC(=O)Nc1nc2c(s1)-c1c(cnn1-c1ccc(CC(=O)NCCC3CCCN3C)cc1)CC2 (stereo unspecified)
CC(=O)Nc1nc2c(s1)-c1c(cnn1-c1ccc(C(=O)NCCCn3ccnc3)cc1)CC2
O=C(Nc1nc2c(s1)-c1nc(-c3ccccc3)ncc1CC2)N1CCOCC1
CC(=O)Nc1nc2c(s1)-c1c(c(C(C)C)nn1-c1ccccc1)CC2
CC(=O)Nc1nc2c(s1)-c1c(cnn1-c1ccc(C(=O)N[C@@H](Cc3ccccc3)C(N)=O)cc1Cl)CC2
CC(=O)Nc1nc2c(s1)-c1c(cnn1-c1c(Cl)cccc1Cl)C2
CC(=O)Nc1nc2c(s1)-c1c(c(C(C)C)nn1-c1ccccc1Br)CC2
CC(=O)Nc1nc2c(s1)-c1c(c(C(=O)O)nn1-c1ccccc1Cl)CC2
CC(=O)Nc1nc2c(s1)-c1c(cnn1-c1ccc(C(=O)NCc3nccn3C)cc1)CC2
NC(=O)Nc1nc2c(s1)-c1c(cnn1-c1ccccc1)C2
CC(=O)Nc1nc2c(s1)-c1c(cnn1-c1ccc(C(=O)NC(C)(C)CN3CCOCC3)cc1)CC2
NNC(=O)Nc1nc2c(s1)-c1c(cnn1-c1ccccc1)CC2
CC(=O)Nc1nc2c(s1)-c1c(cnn1-c1ccc(CCNC(=O)c3ccccc3)cc1)CC2
CCc1ccccc1-n1ncc2c1-c1sc(NC(C)=O)nc1CC2
CC(=O)Nc1nc2c(s1)-c1c(cnn1-c1cc(S(N)(=O)=O)ccc1Cl)CC2
CC(=O)Nc1nc2c(s1)-c1c(c([C@H]3CCCO3)nn1-c1ccc(C(=O)N(C)Cc3ccncc3)cc1Cl)CC2
CC(=O)Nc1nc2c(s1)-c1nc(-c3ccccc3Cl)ncc1CC2
O=C(CO)Nc1nc2c(s1)-c1c(cnn1-c1ccccc1)CC2
CC(=O)Nc1nc2c(s1)-c1c(cnn1-c1ccc(C(=O)NC(C)CO)cc1)CC2 (stereo unspecified)
CC(=O)Nc1nc2c(s1)-c1nc(N3CCCC3=O)ncc1CC2
CNc1ncc2c(n1)-c1sc(NC(C)=O)nc1CC2
CNC(=O)c1ccc(-n2nc(-c3ccco3)c3c2-c2sc(NC(C)=O)nc2CC3)c(Cl)c1
CC(=O)Nc1nc2c(s1)-c1c(c(-c3ccco3)nn1-c1ccccc1)CC2
COC(=O)c1nn(-c2c(Cl)cccc2Cl)c2c1CCc1nc(NC(C)=O)sc1-2
Cc1ccccc1-c1ncc2c(n1)-c1sc(NC(N)=O)nc1CC2
CC(=O)Nc1nc2c(s1)-c1c(cnn1-c1ccc(C(=O)NCc3cccc(N4CCNC4=O)c3)cc1)CC2
CNCCNC(=O)Nc1nc2c(s1)-c1nc(-c3ccccc3)ncc1CC2
CCN1CCCC(NC(=O)Cc2ccc(-n3ncc4c3-c3sc(NC(C)=O)nc3CC4)cc2)C1 (stereo unspecified)
CC(=O)Nc1nc2c(s1)-c1c(cnn1-c1ccc(C(=O)N[C@H]3CC[C@@H](N4CCOCC4)CC3)cc1)CC2
CC(=O)Nc1nc2c(s1)-c1nn(-c3ccccc3Cl)c(-c3cn(C)cn3)c1CC2
CC(=O)Nc1nc2c(s1)-c1c(cnn1-c1ccc(C(=O)NCCCN(C)C)cc1)CC2
COc1cccc(-n2ncc3c2-c2sc(NC(C)=O)nc2CC3)c1
CC(=O)Nc1nc2c(s1)-c1c(cnn1-c1ccc(C(=O)N[C@H]3CC[C@H](N4CCOCC4)CC3)cc1)CC2
CN(C)CCCC(=O)Nc1nc2c(s1)-c1c(cnn1-c1ccccc1)CC2
CC(=O)Nc1nc2c(s1)-c1c(cnn1-c1ccc(C(=O)N(C)CC(=O)N(C)C)cc1)CC2
CC(=O)Nc1nc2c(s1)-c1c(cnn1-c1ccc(C(=O)N[C@H]3CC[C@@H](N4CCN(C)CC4)CC3)cc1)CC2
CC(=O)Nc1nc2c(s1)-c1c(cnn1-c1ccc(S(N)(=O)=O)cc1)CC2
CC(=O)Nc1nc2c(s1)-c1c(cnn1-c1ccc(C(=O)NCC(F)(F)F)cc1)CC2
C#CCN(C(=O)OC(C)(C)C)c1ncc2c(n1)-c1sc(NC(C)=O)nc1CC2
CC(=O)Nc1nc2c(s1)-c1c(c(-c3ccco3)nn1-c1ccc(C(=O)N[C@H]3CC[C@H](N4CCCC4)CC3)cc1Cl)CC2
CC(=O)Nc1nc2c(s1)-c1c(cnn1-c1ccc(CC(=O)N3CCc4cn[nH]c4C3)cc1)CC2
CCCn1ncc2c1-c1sc(NC(C)=O)nc1CC2
CC(=O)Nc1nc2c(s1)-c1c(cnn1-c1ccc(C(=O)N3CCN(C)CC3)cc1)CC2
C#CCNC(=O)Cc1ccc(-n2ncc3c2-c2sc(NC(C)=O)nc2CC3)cc1
CC(=O)Nc1nc2c(s1)-c1c(cnn1-c1ccc(C(=O)N3CCOCC3)cc1)CC2
CC(=O)Nc1nc2c(s1)-c1c(cnn1-c1ccc(C(=O)N[C@H](Cc3cnc[nH]3)C(N)=O)cc1Cl)CC2
CC(=O)Nc1nc2c(s1)-c1c(cnn1-c1ccc(C(=O)NC3CCC(NC(=O)c4cccc5ccccc45)CC3)cc1)CC2 (stereo unspecified)
CC(=O)Nc1nc2c(s1)-c1c(cnn1-c1ccc(CC(=O)NCc3cccc(C(N)=O)c3)cc1)CC2
CC(=O)Nc1nc2c(s1)-c1c(cnn1-c1ccc(S(=O)(=O)N(C)CCN(C)C)cc1)CC2
CC(=O)Nc1ncc2c(n1)-c1sc(NC(C)=O)nc1CC2
NCC#CCNC(=O)Nc1nc2c(s1)-c1c(cnn1-c1ccccc1)CC2
CC(=O)Nc1nc2c(s1)-c1c(cnn1-c1ccc(C(=O)NCCCC(N)=O)cc1Cl)CC2
Nc1ncc2c(n1)-c1sc(N)nc1CC2
COCc1nn(-c2ccc(C(=O)N[C@H]3CC[C@H](N4CCCC4)CC3)cc2Cl)c2c1CCc1nc(NC(C)=O)sc1-2
CN(C)C(=O)Nc1nc2c(s1)-c1nc(N(C)C)ncc1CC2
CC(=O)Nc1nc2c(s1)-c1c(cnn1-c1ccc(C(=O)N3CCC4(CC3)CNC(=O)O4)cc1)CC2
CC(=O)Nc1nc2c(s1)-c1c(cnn1-c1ccc(C(=O)N[C@@H](Cc3c[nH]cn3)C(N)=O)cc1Cl)CC2
CC(=O)Nc1nc2c(s1)-c1c(c(C(=O)N(C)CCO)nn1-c1ccccc1)CC2
CC(=O)Nc1nc2c(s1)-c1nc(N3CCCCC3)ncc1CC2
COc1ccccc1-n1nc(-c2ccco2)c2c1-c1sc(NC(C)=O)nc1CC2
COCc1nn(-c2ccc(C(=O)N[C@H]3CC[C@@H](N4CCCC4)CC3)cc2Cl)c2c1CCc1nc(NC(C)=O)sc1-2
CC(=O)Nc1nc2c(s1)-c1c(cnn1-c1ccc(CC(=O)N3CCC(C(N)=O)CC3)cc1)CC2
CC(=O)Nc1nc2c(s1)-c1c(cnn1-c1ccc(C(=O)N3CCC(C(N)=O)CC3)cc1)CC2
O=CNc1nc2c(s1)-c1nc(-c3ccccc3)ncc1CC2
CC[C@H](NC(=O)c1ccc(-n2ncc3c2-c2sc(NC(C)=O)nc2CC3)c(Cl)c1)C(N)=O
CC(=O)Nc1nc2c(s1)-c1c(cnn1-c1ccc(C(=O)N[C@@H](Cc3ccc4ccccc4c3)C(N)=O)cc1Cl)CC2
CC(=O)Nc1nc2c(s1)-c1c(cnn1-c1ccc(C(=O)N3CCC(CO)CC3)cc1)CC2
CC(=O)Nc1nc2c(s1)-c1c(c(-c3ccoc3)nn1-c1ccccc1)CC2
CN(C)CCCC(=O)Nc1nc2c(s1)-c1nc(-c3ccccc3)ncc1CC2
CC(=O)Nc1nc2c(s1)-c1nc(N3CCCC(CNC(C)C)C3)ncc1CC2 (stereo unspecified)
O=C(Nc1nc2c(s1)-c1nc(-c3ccccc3)ncc1CC2)N1CCCC1
CC(=O)Nc1nc2c(s1)-c1c(c(-c3ccccn3)nn1-c1ccccc1Br)CC2
CN(C)CCCC(=O)Nc1nc2c(s1)-c1c(cnn1-c1ccccc1Cl)C2
CC(=O)Nc1nc2c(s1)-c1nn(C3C=CCCC3)cc1CC2 (stereo unspecified)
CC(=O)Nc1nc2c(s1)-c1nc(N(CCN(C)C)C(C)=O)ncc1CC2
CC(=O)Nc1nc2c(s1)-c1c(c([C@H]3CCCO3)nn1-c1ccccc1Cl)CC2
CC(=O)Nc1nc2c(s1)-c1c(cnn1-c1ccc(C(=O)N3CCCCC3CO)cc1)CC2 (stereo unspecified)
COCc1nn(-c2ccccc2C(F)(F)F)c2c1CCc1nc(NC(C)=O)sc1-2
CN1CCN(C(=O)Nc2nc3c(s2)-c2c(cnn2-c2ccccc2)C3)CC1
COCc1nn(-c2ccc(C(=O)NCc3ccncc3)cc2Cl)c2c1CCc1nc(NC(C)=O)sc1-2
CNS(=O)(=O)c1ccc(-n2ncc3c2-c2sc(NC(C)=O)nc2CC3)cc1
CC(=O)Nc1nc2c(s1)-c1c(cnn1-c1cccc(Cl)c1)CC2
CC(=O)Nc1nc2c(s1)-c1c(c(C(=O)N3CCOCC3)nn1-c1ccccc1Cl)CC2
CC(=O)Nc1nc2c(s1)-c1c(cnn1C(=O)c1ccccc1)CC2
CC(=O)Nc1nc2c(s1)-c1nc(C)ncc1CC2
CC(=O)Nc1nc2c(s1)-c1c(c(C#C[Si](C)(C)C)nn1-c1ccccc1Cl)CC2

From the Kinase Knowledgebase extract (Sharma et al. 2016)
